Data as given in patent publication US4267180A, “Novel antibacterial amide compounds and process means for producing the same” (Warner-Lambert Company, priority 1980, dated 1981).

Experiments:
Assay in all cases: Minimal Inhibitory Concentration, in vitro
Type in all cases: cell-based
Design in all cases: unit not given here
[1] = tested on: Enterobacter Cloacae IMM-11
Excerpt: (§1) The compounds of the invention are new chemical compounds that are useful as pharmacological agents and especially as broad spectrum antibacterial agents. They are active in vitro against strains of both gram-positive and gram-negative bacteria.
(§2) Minimal Inhibitory Concentration

[2] = tested on: Klebsiella Pneumoniae MGH-2
Excerpt: as §1, §2

Proteus Vulgaris 1810 = tested on: Proteus Vulgaris 1810
Excerpt: as §1, §2

[3] = tested on: Pseudomonas Aeruginosa #28
Excerpt: as §1, §2

[4] = tested on: Pseudomonas Aeruginosa UI-18
Excerpt: as §1, §2

[5] = tested on: Serratia Marcescens IMM-16
Excerpt: as §1, §2

Staph Aureus UC-76 = tested on: Staph Aureus UC-76
Excerpt: as §1, §2

Row | Structure (SMILES) | Minimal Inhibitory Concentration [1] | Minimal Inhibitory Concentration [2] | Minimal Inhibitory Concentration (Proteus Vulgaris 1810) | Minimal Inhibitory Concentration [3] | Minimal Inhibitory Concentration [4] | Minimal Inhibitory Concentration [5] | Minimal Inhibitory Concentration (Staph Aureus UC-76)
1 | CC(=O)NCCCCC(NC(C)=O)C(=O)Nc1ccc(-c2ncc(C(=O)N[C@@H](C(=O)N[C@@H]3C(=O)N4[C@@H]3SC(C)(C)[C@@H]4C(=O)O)c3ccc(O)cc3)c(O)n2)cc1 (mixture of isomers) [N,N'-Diacetyl-DL-Lysyl, N-[2-[4-(N,N'-Diacetyl-DL-lysylamino)phenyl]-4-hydroxy-5-pyrimidinylcarbonyl]amoxicillin] | 25 | > 50 | 6.3 | 1.6 | 3.1 | 50 | 1.6
2 | CC(=O)NC(C)C(=O)Nc1ccc(-c2ncc(C(=O)N[C@@H](C(=O)N[C@@H]3C(=O)N4[C@@H]3SC(C)(C)[C@@H]4C(=O)O)c3ccc(O)cc3)c(O)n2)cc1 (mixture of isomers) [N-Acetyl-DL-Alanyl, N-[2-[4-(N-Acetyl-DL-alanylamino)phenyl]-4-hydroxy-5-pyrimidinyl-carbonyl]amoxicillin] | 6.3 | 25 | 0.8 | 1.6 | 1.6 | 6.3 | 0.2
3 | CC(=O)NC(CC(C)C)C(=O)Nc1ccc(-c2ncc(C(=O)N[C@@H](C(=O)N[C@@H]3C(=O)N4[C@@H]3SC(C)(C)[C@@H]4C(=O)O)c3ccc(O)cc3)c(O)n2)cc1 (mixture of isomers) [N-Acetyl-DL-Leucyl, N-[2-[4-(N-Acetyl-DL-leucylamino)phenyl]-4-hydroxy-5-pyrimidinylcarbonyl]amoxicillin] | 25 | > 50 | 3.1 | 3.1 | 3.1 | 25 | 1.6
4 | CSCCC(NC(C)=O)C(=O)Nc1ccc(-c2ncc(C(=O)N[C@@H](C(=O)N[C@@H]3C(=O)N4[C@@H]3SC(C)(C)[C@@H]4C(=O)O)c3ccc(O)cc3)c(O)n2)cc1 (mixture of isomers) [N-Acetyl-DL-Methionyl, N-[2-[4-(N-acetyl-DL-methionylamino)phenyl]-4-hydroxy-5-pyrimidinylcarbonyl]amoxicillin] | 12.5 | 50 | 3.1 | 1.6 | 1.6 | 12.5 | 1.6
5 | CC(=O)N1CCCC1C(=O)Nc1ccc(-c2ncc(C(=O)N[C@@H](C(=O)N[C@@H]3C(=O)N4[C@@H]3SC(C)(C)[C@@H]4C(=O)O)c3ccc(O)cc3)c(O)n2)cc1 (mixture of isomers) [N-Acetyl-DL-Prolyl, N-[2-[4-(N-Acetyl-DL-prolylamino)phenyl]-4-hydroxy-5-pyrimidinylcarbonyl]amoxicillin] | 12.5 | 50 | 1.6 | 1.6 | 1.6 | 12.5 | 0.8
6 | CC(=O)NC(C(=O)Nc1ccc(-c2ncc(C(=O)N[C@@H](C(=O)N[C@@H]3C(=O)N4[C@@H]3SC(C)(C)[C@@H]4C(=O)O)c3ccc(O)cc3)c(O)n2)cc1)C(C)C (mixture of isomers) [N-Acetyl-DL-Valyl, N-[2-[4-(N-Acetyl-DL-valylamino)phenyl]-4-hydroxy-5-pyrimidinylcarbonyl]amoxicillin] | 25 | > 50 | 3.1 | 1.6 | 1.6 | 25 | 3.1
7 | CC1(C)S[C@@H]2[C@H](NC(=O)[C@H](NC(=O)c3cnc(-c4ccc(NC(=O)[C@@H]5CCC(=O)N5)cc4)nc3O)c3ccc(O)cc3)C(=O)N2[C@H]1C(=O)O [5-Oxo-L-Prolyl, N-[2-[4-((5-oxo-L-prolyl)amino)phenyl]-4-hydroxy-5-pyrimidinylcarbonyl]amoxicillin] | 6.3 | 50 | 0.8 | 0.8 | 1.6 | 12.5 | 0.8
8 | CC1(C)S[C@@H]2[C@H](NC(=O)[C@H](NC(=O)c3cnc(-c4ccc(NC(=O)CN5CCCC5=O)cc4)nc3O)c3ccc(O)cc3)C(=O)N2[C@H]1C(=O)O [(2-Oxo-1-pyrrolidinyl)acetyl, N-[2-[4-[(2-Oxo-1-pyrrolidinyl)acetylamino]phenyl]-4-hydroxy-5-pyrimidinylcarbonyl]amoxicillin] | 12.5 | 25 | 1.6 | 1.6 | 3.1 | 25 | 1.6
9 | CC(=O)NCC(=O)Nc1ccc(-c2ncc(C(=O)N[C@@H](C(=O)N[C@@H]3C(=O)N4[C@@H]3SC(C)(C)[C@@H]4C(=O)O)c3ccc(O)cc3)c(O)n2)cc1 [N-Acetyl Glycyl] | 6.3 | 50 | 1.6 | 1.6 | 6.3 | 6.3 | 0.8
10 | CC(=O)N[C@@H](C)C(=O)Nc1ccc(-c2ncc(C(=O)N[C@@H](C(=O)N[C@@H]3C(=O)N4[C@@H]3SC(C)(C)[C@@H]4C(=O)O)c3ccc(O)cc3)c(O)n2)cc1 [N-Acetyl-L-Alanyl, N-[2-[4-(N-acetyl-L-alanylamino)phenyl]-4-hydroxy-5-pyrimidinylcarbonyl]amoxicillin] | 6.3 | 50 | 0.8 | 1.6 | 0.8 | 12.5 | 0.4
11 | CC(=O)N1CC(O)C[C@H]1C(=O)Nc1ccc(-c2ncc(C(=O)N[C@@H](C(=O)N[C@@H]3C(=O)N4[C@@H]3SC(C)(C)[C@@H]4C(=O)O)c3ccc(O)cc3)c(O)n2)cc1 (stereo partly drawn) [N-Acetyl-L-Hydroxyprolyl, N-[2-[4-(N-Acetyl-L-hydroxyprolylamino)phenyl]-4-hydroxy-5-pyrimidinylcarbonyl]amoxicillin] | 12.5 | 50 | 3.1 | 1.6 | 1.6 | 50 | 0.8
12 | CC(=O)N[C@@H](Cc1ccc(O)cc1)C(=O)Nc1ccc(-c2ncc(C(=O)N[C@@H](C(=O)N[C@@H]3C(=O)N4[C@@H]3SC(C)(C)[C@@H]4C(=O)O)c3ccc(O)cc3)c(O)n2)cc1 [N-Acetyl-L-Tyrosyl, N-[2-[4-(N-Acetyl-L-tyrosylamino)phenyl]-4-hydroxy-5-pyrimidinylcarbonyl]amoxicillin] | 12.5 | 50 | 3.1 | 1.6 | 3.1 | 12.5 | 1.6
